Measured values as given in PubChem BioAssay (NCI).
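Each compound was tested at five concentrations against cells in 96-well plates for 48 hours. GI50 marks 50% less growth. TGI is the concentration that stops growth completely.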

Columns and labels:
Test in all cases: DTP human tumour cell line panel, 48 h
786-0 renal = test system: 786-0 renal
A498 renal = test system: A498 renal
A549 NSCLC = test system: A549 NSCLC
ACHN renal = test system: ACHN renal
BT-549 breast = test system: BT-549 breast
CAKI-1 renal = test system: CAKI-1 renal
CCRF-CEM leukemia = test system: CCRF-CEM leukemia
COLO 205 colon = test system: COLO 205 colon
DU-145 prostate = test system: DU-145 prostate
EKVX NSCLC = test system: EKVX NSCLC
HCC-2998 colon = test system: HCC-2998 colon
HCT-116 colon = test system: HCT-116 colon
HCT-15 colon = test system: HCT-15 colon
HL-60(TB) leukemia = test system: HL-60(TB) leukemia
HOP-62 NSCLC = test system: HOP-62 NSCLC
HOP-92 NSCLC = test system: HOP-92 NSCLC
HS 578T breast = test system: HS 578T breast
HT29 colon = test system: HT29 colon
IGROV1 ovarian = test system: IGROV1 ovarian
K-562 leukemia = test system: K-562 leukemia
KM12 colon = test system: KM12 colon
LOX IMVI melanoma = test system: LOX IMVI melanoma
M14 melanoma = test system: M14 melanoma
MALME-3M melanoma = test system: MALME-3M melanoma
MCF7 breast = test system: MCF7 breast
MDA-MB-231 breast = test system: MDA-MB-231 breast
MDA-MB-435 = test system: MDA-MB-435
MDA-MB-468 breast = test system: MDA-MB-468 breast
MOLT-4 leukemia = test system: MOLT-4 leukemia
NCI-H226 lung = test system: NCI-H226 lung
NCI-H23 lung = test system: NCI-H23 lung
NCI-H460 lung = test system: NCI-H460 lung
NCI-H522 lung = test system: NCI-H522 lung
NCI/ADR-RES ovarian = test system: NCI/ADR-RES ovarian
OVCAR-3 ovarian = test system: OVCAR-3 ovarian
OVCAR-4 ovarian = test system: OVCAR-4 ovarian
OVCAR-5 ovarian = test system: OVCAR-5 ovarian
OVCAR-8 ovarian = test system: OVCAR-8 ovarian
PC-3 prostate = test system: PC-3 prostate
RPMI-8226 leukemia = test system: RPMI-8226 leukemia
RXF 393 renal = test system: RXF 393 renal
SF-268 CNS = test system: SF-268 CNS
SF-295 CNS = test system: SF-295 CNS
SF-539 CNS = test system: SF-539 CNS
SK-MEL-2 melanoma = test system: SK-MEL-2 melanoma
SK-MEL-28 melanoma = test system: SK-MEL-28 melanoma
SK-MEL-5 melanoma = test system: SK-MEL-5 melanoma
SK-OV-3 ovarian = test system: SK-OV-3 ovarian
SN12C renal = test system: SN12C renal
SNB-19 CNS = test system: SNB-19 CNS
SNB-75 CNS = test system: SNB-75 CNS
SR leukemia = test system: SR leukemia
SW-620 colon = test system: SW-620 colon
T-47D breast = test system: T-47D breast
TK-10 renal = test system: TK-10 renal
U251 CNS = test system: U251 CNS
UACC-257 melanoma = test system: UACC-257 melanoma
UACC-62 melanoma = test system: UACC-62 melanoma
UO-31 renal = test system: UO-31 renal

`CC(=O)N1CCN(Cc2ccc3c(NNC(=O)c4cnccn4)nc4cc(F)ccc4n23)CC1` was tested, and the GI50 (786-0 renal) was 0.342 µM, the TGI (786-0 renal) was 6.55 µM and the GI50 (A498 renal) was 22.7 µM. It also gave a TGI (A498 renal) of 37.8 µM, a GI50 (A549 NSCLC) of 0.596 µM and a TGI (A549 NSCLC) of 17.5 µM. It also gave a GI50 (ACHN renal) of 0.311 µM, a TGI (ACHN renal) of 12.3 µM and a GI50 (BT-549 breast) of 0.995 µM. The TGI (BT-549 breast) was 19.6 µM, the GI50 (CAKI-1 renal) was 0.477 µM and the TGI (CAKI-1 renal) was 18.8 µM. For the same compound, the GI50 (CCRF-CEM leukemia) was 0.374 µM, the TGI (CCRF-CEM leukemia) was 10.6 µM and the GI50 (COLO 205 colon) was 0.436 µM. It also gave a TGI (COLO 205 colon) of 11.4 µM, a GI50 (DU-145 prostate) of 0.873 µM and a TGI (DU-145 prostate) greater than 100 µM. It also gave a GI50 (EKVX NSCLC) of 0.312 µM, a TGI (EKVX NSCLC) of 10.3 µM and a GI50 (HCC-2998 colon) of 0.96 µM. For the same compound, the TGI (HCC-2998 colon) was 19 µM, the GI50 (HCT-116 colon) was 0.309 µM and the TGI (HCT-116 colon) was 18.8 µM. It also gave a GI50 (HCT-15 colon) of 0.197 µM, a TGI (HCT-15 colon) of 19 µM and a GI50 (HL-60(TB) leukemia) of 0.461 µM. It also gave a TGI (HL-60(TB) leukemia) of 4.54 µM, a GI50 (HOP-62 NSCLC) of 0.41 µM and a TGI (HOP-62 NSCLC) of 23.6 µM. For the same compound, the GI50 (HOP-92 NSCLC) was 0.331 µM, the TGI (HOP-92 NSCLC) was 14.6 µM and the GI50 (HS 578T breast) was 13.2 µM. The TGI (HS 578T breast) was greater than 100 µM, the GI50 (HT29 colon) was 0.501 µM and the TGI (HT29 colon) was 21 µM. The GI50 (IGROV1 ovarian) was 0.784 µM, the TGI (IGROV1 ovarian) was greater than 52.9 µM and the GI50 (K-562 leukemia) was 0.753 µM. It also gave a TGI (K-562 leukemia) of 33.5 µM, a GI50 (KM12 colon) of 0.537 µM and a TGI (KM12 colon) greater than 81.3 µM. The GI50 (LOX IMVI melanoma) was 0.371 µM, the TGI (LOX IMVI melanoma) was 3.09 µM and the GI50 (M14 melanoma) was 0.333 µM. The TGI (M14 melanoma) was 2.24 µM, the GI50 (MALME-3M melanoma) was 1.22 µM and the TGI (MALME-3M melanoma) was 10.9 µM. For the same compound, the GI50 (MCF7 breast) was 0.898 µM, the TGI (MCF7 breast) was 31.2 µM and the GI50 (MDA-MB-231 breast) was 0.736 µM. For the same compound, the TGI (MDA-MB-231 breast) was 25.2 µM, the GI50 (MDA-MB-435) was 1.51 µM and the TGI (MDA-MB-435) was greater than 100 µM. For the same compound, the GI50 (MDA-MB-468 breast) was 0.525 µM, the TGI (MDA-MB-468 breast) was 3.39 µM and the GI50 (MOLT-4 leukemia) was 0.387 µM. It also gave a TGI (MOLT-4 leukemia) of 15.5 µM, a GI50 (NCI-H226 lung) of 0.742 µM and a TGI (NCI-H226 lung) of 11.2 µM. The GI50 (NCI-H23 lung) was 0.909 µM, the TGI (NCI-H23 lung) was 13.2 µM and the GI50 (NCI-H460 lung) was 0.408 µM. The TGI (NCI-H460 lung) was greater than 36 µM, the GI50 (NCI-H522 lung) was 1.26 µM and the TGI (NCI-H522 lung) was 15.7 µM. It also gave a GI50 (NCI/ADR-RES ovarian) of 1.17 µM, a TGI (NCI/ADR-RES ovarian) of 12.3 µM and a GI50 (OVCAR-3 ovarian) of 0.724 µM. It also gave a TGI (OVCAR-3 ovarian) of 30.5 µM, a GI50 (OVCAR-4 ovarian) of 0.64 µM and a TGI (OVCAR-4 ovarian) of 41.7 µM. The GI50 (OVCAR-5 ovarian) was 1.09 µM, the TGI (OVCAR-5 ovarian) was 24.4 µM and the GI50 (OVCAR-8 ovarian) was 0.454 µM. For the same compound, the TGI (OVCAR-8 ovarian) was greater than 34.1 µM, the GI50 (PC-3 prostate) was 0.525 µM and the TGI (PC-3 prostate) was greater than 52.4 µM. For the same compound, the GI50 (RPMI-8226 leukemia) was 0.823 µM, the TGI (RPMI-8226 leukemia) was greater than 39.7 µM and the GI50 (RXF 393 renal) was 1.45 µM. It also gave a TGI (RXF 393 renal) of 12.4 µM, a GI50 (SF-268 CNS) of 0.609 µM and a TGI (SF-268 CNS) greater than 100 µM. For the same compound, the GI50 (SF-295 CNS) was 0.29 µM, the TGI (SF-295 CNS) was 29.9 µM and the GI50 (SF-539 CNS) was 0.787 µM. The TGI (SF-539 CNS) was 6.04 µM, the GI50 (SK-MEL-2 melanoma) was 1.28 µM and the TGI (SK-MEL-2 melanoma) was 11.4 µM. For the same compound, the GI50 (SK-MEL-28 melanoma) was 0.624 µM, the TGI (SK-MEL-28 melanoma) was 31.6 µM and the GI50 (SK-MEL-5 melanoma) was 0.605 µM. For the same compound, the TGI (SK-MEL-5 melanoma) was 4.98 µM, the GI50 (SK-OV-3 ovarian) was 0.492 µM and the TGI (SK-OV-3 ovarian) was 13.7 µM. For the same compound, the GI50 (SN12C renal) was 0.864 µM, the TGI (SN12C renal) was greater than 100 µM and the GI50 (SNB-19 CNS) was 1.2 µM. The TGI (SNB-19 CNS) was greater than 100 µM, the GI50 (SNB-75 CNS) was 1.39 µM and the TGI (SNB-75 CNS) was 99.3 µM. It also gave a GI50 (SR leukemia) of 0.389 µM, a TGI (SR leukemia) of 10.7 µM and a GI50 (SW-620 colon) of 0.633 µM. It also gave a TGI (SW-620 colon) greater than 63 µM, a GI50 (T-47D breast) of 1.7 µM and a TGI (T-47D breast) of 36.8 µM. For the same compound, the GI50 (TK-10 renal) was 0.304 µM, the TGI (TK-10 renal) was 45.7 µM and the GI50 (U251 CNS) was 0.505 µM. For the same compound, the TGI (U251 CNS) was 48.7 µM, the GI50 (UACC-257 melanoma) was 1.68 µM and the TGI (UACC-257 melanoma) was 10.5 µM. It also gave a GI50 (UACC-62 melanoma) of 0.435 µM, a TGI (UACC-62 melanoma) of 2.21 µM and a GI50 (UO-31 renal) of 0.163 µM. For the same compound, the TGI (UO-31 renal) was 7.66 µM.
